{"source": "PubChem BioAssay AID318", "about": "(DTP/NCI, 2004)", "system": "BDF1 mice, P815 leukemia ip, survival T/C", "test": "NCI In Vivo Anticancer Drug Screen. Data for tumor model P815 Mast Cell Leukemia (Ascitic) (intraperitoneal) in B6D2F1 (BDF1) mice", "settings": "higher = longer survival", "protocol": "The antitumor activity of compounds was measured in mice bearing transplantable tumors. Survival or tumor size were measured and the results are expressed as the measurement made in the treated group (T) divided by the measurement made in the vehicle treated control group (C). The tumor model used in this assay is P815 Mast Cell Leukemia (Ascitic) (intraperitoneal) in B6D2F1 (BDF1) mice", "key": {"[1]": {"settings": "endpoint: survival time, mean or median, dose: 1.5 mg/kg/injection, schedule: Q01DX015 (ip), vehicle: other"}, "[2]": {"settings": "endpoint: survival time, mean or median, dose: 32.0 mg/kg/injection, schedule: Q01DX010 (ip), vehicle: saline"}, "[3]": {"settings": "endpoint: survival time, mean or median, dose: 5.0 mg/kg/injection, schedule: Q01DX015 (ip), vehicle: carboxymethylcellulose (CMC)"}, "[4]": {"settings": "endpoint: survival time, mean or median, dose: 10.0 mg/kg/injection, schedule: Q01DX015 (ip), vehicle: carboxymethylcellulose (CMC)"}, "[5]": {"settings": "endpoint: survival time, mean or median, dose: 20.0 mg/kg/injection, schedule: Q01DX015 (ip), vehicle: carboxymethylcellulose (CMC)"}, "[6]": {"settings": "endpoint: survival time, mean or median, dose: 4.0 mg/kg/injection, schedule: Q01DX010 (ip), vehicle: saline"}}, "note": "Several values for one entry are separate records, joined by “and”; a condition that tells them apart may be missing. Equal values may be shown once. Inconclusive results and toxic doses are left out.", "data": [{"smiles": "CC(=O)OCC1OC(n2cnc3c(=S)nc(N)[nH]c32)C(OC(C)=O)C1OC(C)=O", "note": "(stereo unspecified)", "values": [{"measurement": "T/C", "setting": "[1]", "result": "113 % of control"}, {"measurement": "T/C", "setting": "endpoint: survival time, mean or median, dose: 3.1 mg/kg/injection, schedule: Q01DX015 (ip), vehicle: other", "result": "110 % of control"}, {"measurement": "T/C", "setting": "endpoint: survival time, mean or median, dose: 6.2 mg/kg/injection, schedule: Q01DX015 (ip), vehicle: other", "result": "108 % of control"}, {"measurement": "T/C", "setting": "endpoint: survival time, mean or median, dose: 12.5 mg/kg/injection, schedule: Q01DX015 (ip), vehicle: other", "result": "88 % of control"}]}, {"smiles": "N[C@@H](Cc1ccc(N(CCCl)CCCl)cc1)C(=O)O", "values": [{"measurement": "T/C", "setting": "endpoint: survival time, mean or median, dose: 1.0 mg/kg/injection, schedule: Q01DX015 (ip), vehicle: carboxymethylcellulose (CMC)", "result": "231 % of control"}, {"measurement": "T/C", "setting": "endpoint: survival time, mean or median, dose: 2.0 mg/kg/injection, schedule: Q01DX015 (ip), vehicle: carboxymethylcellulose (CMC)", "result": "257 % of control"}, {"measurement": "T/C", "setting": "endpoint: survival time, mean or median, dose: 4.0 mg/kg/injection, schedule: Q01DX015 (ip), vehicle: carboxymethylcellulose (CMC)", "result": "182 % of control and 195 % of control"}, {"measurement": "T/C", "setting": "endpoint: survival time, mean or median, dose: 8.0 mg/kg/injection, schedule: Q01DX015 (ip), vehicle: carboxymethylcellulose (CMC)", "result": "103 % of control"}]}, {"smiles": "CN(C)c1ccc(Nc2c3ccccc3nc3ccccc23)cc1", "values": [{"measurement": "T/C", "setting": "endpoint: survival time, mean or median, dose: 36.0 mg/kg/injection, schedule: Q01DX010 (ip), vehicle: saline", "result": "105 % of control and 122 % of control"}, {"measurement": "T/C", "setting": "endpoint: survival time, mean or median, dose: 54.0 mg/kg/injection, schedule: Q01DX010 (ip), vehicle: saline", "result": "120 % of control and 122 % of control"}, {"measurement": "T/C", "setting": "endpoint: survival time, mean or median, dose: 80.0 mg/kg/injection, schedule: Q01DX010 (ip), vehicle: saline", "result": "166 % of control"}, {"measurement": "T/C", "setting": "endpoint: survival time, mean or median, dose: 120.0 mg/kg/injection, schedule: Q01DX010 (ip), vehicle: saline", "result": "111 % of control"}]}, {"smiles": "O=C(Nc1ccc(NC(=O)Nc2ccc(C3=NCCN3)cc2)cc1)Nc1ccc(C2=NCCN2)cc1", "values": [{"measurement": "T/C", "setting": "endpoint: survival time, mean or median, dose: 110.0 mg/kg/injection, schedule: Q01DX010 (ip), vehicle: saline", "result": "113 % of control"}, {"measurement": "T/C", "setting": "endpoint: survival time, mean or median, dose: 165.0 mg/kg/injection, schedule: Q01DX010 (ip), vehicle: saline", "result": "113 % of control"}, {"measurement": "T/C", "setting": "endpoint: survival time, mean or median, dose: 250.0 mg/kg/injection, schedule: Q01DX010 (ip), vehicle: saline", "result": "100 % of control"}, {"measurement": "T/C", "setting": "endpoint: survival time, mean or median, dose: 375.0 mg/kg/injection, schedule: Q01DX010 (ip), vehicle: saline", "result": "104 % of control"}]}, {"smiles": "O=C(Nc1ccc(C2=NCCN2)cc1)c1cccc(C(=O)Nc2ccc(C3=NCCN3)cc2)c1", "values": [{"measurement": "T/C", "setting": "endpoint: survival time, mean or median, dose: 8.0 mg/kg/injection, schedule: Q01DX010 (ip), vehicle: saline", "result": "118 % of control"}, {"measurement": "T/C", "setting": "[2]", "result": "200 % of control and 160 % of control"}, {"measurement": "T/C", "setting": "endpoint: survival time, mean or median, dose: 64.0 mg/kg/injection, schedule: Q01DX010 (ip), vehicle: saline", "result": "181 % of control and 233 % of control"}]}, {"smiles": "O=c1[nH]cc(F)c(=O)[nH]1", "values": [{"measurement": "T/C", "setting": "endpoint: median survival time, dose: 80.0 mg/kg/injection, schedule: Q04DX003 (ip), vehicle: saline", "result": "118 % of control"}, {"measurement": "T/C", "setting": "endpoint: survival time, mean or median, dose: 5.0 mg/kg/injection, schedule: Q01DX010 (ip), vehicle: saline", "result": "150 % of control"}, {"measurement": "T/C", "setting": "[3]", "result": "162 % of control"}, {"measurement": "T/C", "setting": "endpoint: survival time, mean or median, dose: 10.0 mg/kg/injection, schedule: Q01DX010 (ip), vehicle: saline", "result": "194 % of control and 150 % of control"}, {"measurement": "T/C", "setting": "[4]", "result": "174 % of control"}, {"measurement": "T/C", "setting": "endpoint: survival time, mean or median, dose: 15.0 mg/kg/injection, schedule: Q01DX015 (ip), vehicle: carboxymethylcellulose (CMC)", "result": "199 % of control and 174 % of control"}, {"measurement": "T/C", "setting": "endpoint: survival time, mean or median, dose: 20.0 mg/kg/injection, schedule: Q01DX010 (ip), vehicle: saline", "result": "195 % of control and 216 % of control"}, {"measurement": "T/C", "setting": "[5]", "result": "189 % of control"}, {"measurement": "T/C", "setting": "endpoint: survival time, mean or median, dose: 40.0 mg/kg/injection, schedule: Q01DX010 (ip), vehicle: saline", "result": "95 % of control and 111 % of control"}]}, {"smiles": "CS(=O)(=O)OCCC(=O)N1CCN(C(=O)CCOS(C)(=O)=O)CC1", "values": [{"measurement": "T/C", "setting": "endpoint: survival time, mean or median, dose: 12.5 mg/kg/injection, schedule: Q01DX010 (ip), vehicle: saline", "result": "105 % of control"}, {"measurement": "T/C", "setting": "endpoint: survival time, mean or median, dose: 25.0 mg/kg/injection, schedule: Q01DX010 (ip), vehicle: saline", "result": "222 % of control"}, {"measurement": "T/C", "setting": "endpoint: survival time, mean or median, dose: 50.0 mg/kg/injection, schedule: Q01DX010 (ip), vehicle: saline", "result": "211 % of control and 285 % of control"}, {"measurement": "T/C", "setting": "endpoint: survival time, mean or median, dose: 100.0 mg/kg/injection, schedule: Q01DX010 (ip), vehicle: saline", "result": "183 % of control and 160 % of control"}]}, {"smiles": "CN(C)c1nc(N(C)C)nc(N(C)C)n1", "values": [{"measurement": "T/C", "setting": "endpoint: survival time, mean or median, dose: 18.8 mg/kg/injection, schedule: Q01DX010 (ip), vehicle: saline", "result": "94 % of control and 102 % of control"}, {"measurement": "T/C", "setting": "endpoint: survival time, mean or median, dose: 37.5 mg/kg/injection, schedule: Q01DX010 (ip), vehicle: saline", "result": "94 % of control"}, {"measurement": "T/C", "setting": "endpoint: survival time, mean or median, dose: 75.0 mg/kg/injection, schedule: Q01DX010 (ip), vehicle: saline", "result": "97 % of control and 102 % of control"}, {"measurement": "T/C", "setting": "endpoint: survival time, mean or median, dose: 150.0 mg/kg/injection, schedule: Q01DX010 (ip), vehicle: saline", "result": "102 % of control and 107 % of control"}]}, {"smiles": "CS(=O)(=O)OCCN(CCOS(C)(=O)=O)c1ccc(N=O)cc1", "values": [{"measurement": "T/C", "setting": "endpoint: survival time, mean or median, dose: 1.0 mg/kg/injection, schedule: Q01DX010 (ip), vehicle: saline", "result": "161 % of control"}, {"measurement": "T/C", "setting": "endpoint: survival time, mean or median, dose: 2.0 mg/kg/injection, schedule: Q01DX010 (ip), vehicle: saline", "result": "115 % of control"}, {"measurement": "T/C", "setting": "[6]", "result": "100 % of control"}]}, {"smiles": "CCCCOP(=S)(N1CC1)N1CC1", "values": [{"measurement": "T/C", "setting": "[6]", "result": "120 % of control and 122 % of control"}, {"measurement": "T/C", "setting": "endpoint: survival time, mean or median, dose: 16.0 mg/kg/injection, schedule: Q01DX010 (ip), vehicle: saline", "result": "90 % of control and 122 % of control"}, {"measurement": "T/C", "setting": "[2]", "result": "90 % of control"}]}, {"smiles": "C[C@@H]1C[C@H]2CC[C@H](O2)[C@H](C)C(=O)O[C@@H](C)C[C@@H]2CC[C@@H](O2)[C@@H](C)C(=O)O[C@H](C)C[C@H]2CC[C@H](O2)[C@H](C)C(=O)O[C@@H](C)C[C@@H]2CC[C@@H](O2)[C@@H](C)C(=O)O1", "values": [{"measurement": "T/C", "setting": "[1]", "result": "106 % of control"}, {"measurement": "T/C", "setting": "endpoint: survival time, mean or median, dose: 3.0 mg/kg/injection, schedule: Q01DX015 (ip), vehicle: other", "result": "98 % of control"}, {"measurement": "T/C", "setting": "endpoint: survival time, mean or median, dose: 6.0 mg/kg/injection, schedule: Q01DX015 (ip), vehicle: other", "result": "100 % of control"}, {"measurement": "T/C", "setting": "endpoint: survival time, mean or median, dose: 12.0 mg/kg/injection, schedule: Q01DX015 (ip), vehicle: other", "result": "100 % of control"}]}, {"smiles": "CN(Cc1cnc2nc(N)nc(N)c2n1)c1c(Cl)cc(C(=O)NC(CCC(=O)O)C(=O)O)cc1Cl", "note": "(stereo unspecified)", "values": [{"measurement": "T/C", "setting": "[3]", "result": "150 % of control"}, {"measurement": "T/C", "setting": "[4]", "result": "164 % of control"}, {"measurement": "T/C", "setting": "endpoint: survival time, mean or median, dose: 13.2 mg/kg/injection, schedule: Q01DX015 (ip), vehicle: carboxymethylcellulose (CMC)", "result": "166 % of control"}, {"measurement": "T/C", "setting": "[5]", "result": "164 % of control"}, {"measurement": "T/C", "setting": "endpoint: survival time, mean or median, dose: 25.0 mg/kg/injection, schedule: Q01DX015 (ip), vehicle: carboxymethylcellulose (CMC)", "result": "190 % of control"}, {"measurement": "T/C", "setting": "endpoint: survival time, mean or median, dose: 30.0 mg/kg/injection, schedule: Q01DX015 (ip), vehicle: carboxymethylcellulose (CMC)", "result": "181 % of control"}, {"measurement": "T/C", "setting": "endpoint: survival time, mean or median, dose: 45.0 mg/kg/injection, schedule: Q01DX015 (ip), vehicle: carboxymethylcellulose (CMC)", "result": "179 % of control"}, {"measurement": "T/C", "setting": "endpoint: survival time, mean or median, dose: 67.5 mg/kg/injection, schedule: Q01DX015 (ip), vehicle: carboxymethylcellulose (CMC)", "result": "164 % of control"}, {"measurement": "T/C", "setting": "endpoint: survival time, mean or median, dose: 100.0 mg/kg/injection, schedule: Q01DX015 (ip), vehicle: carboxymethylcellulose (CMC)", "result": "121 % of control"}]}, {"smiles": "CC(C)CNS(=O)(=O)c1ncnc2nc[nH]c12", "values": [{"measurement": "T/C", "setting": "endpoint: survival time, mean or median, dose: 37.5 mg/kg/injection, schedule: Q01DX015 (ip), vehicle: carboxymethylcellulose (CMC)", "result": "97 % of control"}]}]}
